Assay results published in PubChem BioAssay (NCI).
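The compound was tested at five concentrations on cells cultured in 96-well plates, with a 48-hour exposure period. Here, GI50 denotes the concentration required for 50% inhibition of growth. TGI denotes the concentration required for complete inhibition of growth.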

Key:
Assay in all cases: NCI tumour cell line growth inhibition, 48 h
NCI-H226 lung = tested on: NCI-H226 lung
UO-31 renal = tested on: UO-31 renal
SK-MEL-5 melanoma = tested on: SK-MEL-5 melanoma
COLO 205 colon = tested on: COLO 205 colon
HCT-15 colon = tested on: HCT-15 colon
SK-MEL-28 melanoma = tested on: SK-MEL-28 melanoma
DU-145 prostate = tested on: DU-145 prostate
RPMI-8226 leukemia = tested on: RPMI-8226 leukemia
U251 CNS = tested on: U251 CNS
MCF7 breast = tested on: MCF7 breast
CAKI-1 renal = tested on: CAKI-1 renal
SNB-19 CNS = tested on: SNB-19 CNS
UACC-62 melanoma = tested on: UACC-62 melanoma
MOLT-4 leukemia = tested on: MOLT-4 leukemia
HCT-116 colon = tested on: HCT-116 colon
OVCAR-5 ovarian = tested on: OVCAR-5 ovarian
NCI-H23 lung = tested on: NCI-H23 lung
HOP-92 NSCLC = tested on: HOP-92 NSCLC
A498 renal = tested on: A498 renal
SF-539 CNS = tested on: SF-539 CNS
A549 NSCLC = tested on: A549 NSCLC
HT29 colon = tested on: HT29 colon
EKVX NSCLC = tested on: EKVX NSCLC
HCC-2998 colon = tested on: HCC-2998 colon
CCRF-CEM leukemia = tested on: CCRF-CEM leukemia
OVCAR-3 ovarian = tested on: OVCAR-3 ovarian
SF-295 CNS = tested on: SF-295 CNS
SN12C renal = tested on: SN12C renal
NCI-H460 lung = tested on: NCI-H460 lung
BT-549 breast = tested on: BT-549 breast
MALME-3M melanoma = tested on: MALME-3M melanoma
RXF 393 renal = tested on: RXF 393 renal
MDA-MB-435 = tested on: MDA-MB-435
NCI/ADR-RES ovarian = tested on: NCI/ADR-RES ovarian
T-47D breast = tested on: T-47D breast
NCI-H522 lung = tested on: NCI-H522 lung
KM12 colon = tested on: KM12 colon
OVCAR-8 ovarian = tested on: OVCAR-8 ovarian
SK-OV-3 ovarian = tested on: SK-OV-3 ovarian
OVCAR-4 ovarian = tested on: OVCAR-4 ovarian
HL-60(TB) leukemia = tested on: HL-60(TB) leukemia
M14 melanoma = tested on: M14 melanoma
786-0 renal = tested on: 786-0 renal
UACC-257 melanoma = tested on: UACC-257 melanoma
PC-3 prostate = tested on: PC-3 prostate
SK-MEL-2 melanoma = tested on: SK-MEL-2 melanoma
LOX IMVI melanoma = tested on: LOX IMVI melanoma
IGROV1 ovarian = tested on: IGROV1 ovarian
SR leukemia = tested on: SR leukemia
HS 578T breast = tested on: HS 578T breast
MDA-MB-231 breast = tested on: MDA-MB-231 breast
HOP-62 NSCLC = tested on: HOP-62 NSCLC
MDA-MB-468 breast = tested on: MDA-MB-468 breast
SNB-75 CNS = tested on: SNB-75 CNS
TK-10 renal = tested on: TK-10 renal
K-562 leukemia = tested on: K-562 leukemia
SF-268 CNS = tested on: SF-268 CNS
SW-620 colon = tested on: SW-620 colon
ACHN renal = tested on: ACHN renal

c1ccc(C(=C(c2ccc(OCCN3CCCCC3)cc2)c2ccc(OCCN3CCCCC3)cc2)C2CCCC2)cc1
GI50 (NCI-H226 lung): 3.32 µM | TGI (NCI-H226 lung): 13.3 µM | GI50 (UO-31 renal): > 18 µM | TGI (UO-31 renal): > 18 µM | GI50 (SK-MEL-5 melanoma): 2.73 µM | TGI (SK-MEL-5 melanoma): 5.23 µM | GI50 (COLO 205 colon): 3.24 µM | TGI (COLO 205 colon): 6.71 µM | GI50 (HCT-15 colon): > 18 µM | TGI (HCT-15 colon): > 18 µM | GI50 (SK-MEL-28 melanoma): 3.03 µM | TGI (SK-MEL-28 melanoma): 5.81 µM | GI50 (DU-145 prostate): 4.25 µM | TGI (DU-145 prostate): 10.5 µM | GI50 (RPMI-8226 leukemia): 3.44 µM | TGI (RPMI-8226 leukemia): 8.24 µM | GI50 (U251 CNS): 3.56 µM | TGI (U251 CNS): 8.23 µM | GI50 (MCF7 breast): 1.93 µM | TGI (MCF7 breast): 4.52 µM | GI50 (CAKI-1 renal): 7.87 µM | TGI (CAKI-1 renal): > 18 µM | GI50 (SNB-19 CNS): 4.39 µM | TGI (SNB-19 CNS): 14.6 µM | GI50 (UACC-62 melanoma): 2.9 µM | TGI (UACC-62 melanoma): 5.35 µM | GI50 (MOLT-4 leukemia): 2.59 µM | TGI (MOLT-4 leukemia): 7.72 µM | GI50 (HCT-116 colon): 3.48 µM | TGI (HCT-116 colon): 6.82 µM | GI50 (OVCAR-5 ovarian): 4.67 µM | TGI (OVCAR-5 ovarian): > 18 µM | GI50 (NCI-H23 lung): 5.16 µM | TGI (NCI-H23 lung): 17.9 µM | GI50 (HOP-92 NSCLC): 2.57 µM | TGI (HOP-92 NSCLC): 5.85 µM | GI50 (A498 renal): > 18 µM | TGI (A498 renal): > 18 µM | GI50 (SF-539 CNS): 2.88 µM | TGI (SF-539 CNS): 5.4 µM | GI50 (A549 NSCLC): 3.29 µM | TGI (A549 NSCLC): 7.96 µM | GI50 (HT29 colon): 3.1 µM | TGI (HT29 colon): 6.24 µM | GI50 (EKVX NSCLC): 8.68 µM | TGI (EKVX NSCLC): > 18 µM | GI50 (HCC-2998 colon): 2.83 µM | TGI (HCC-2998 colon): 5.33 µM | GI50 (CCRF-CEM leukemia): 3 µM | TGI (CCRF-CEM leukemia): 6.55 µM | GI50 (OVCAR-3 ovarian): 3.05 µM | TGI (OVCAR-3 ovarian): 5.85 µM | GI50 (SF-295 CNS): 5.14 µM | TGI (SF-295 CNS): > 18 µM | GI50 (SN12C renal): 4.08 µM | TGI (SN12C renal): 11.8 µM | GI50 (NCI-H460 lung): 2.82 µM | TGI (NCI-H460 lung): 5.41 µM | GI50 (BT-549 breast): 2.8 µM | TGI (BT-549 breast): 5.38 µM | GI50 (MALME-3M melanoma): 2.69 µM | TGI (MALME-3M melanoma): 5.1 µM | GI50 (RXF 393 renal): 2.91 µM | TGI (RXF 393 renal): 7.11 µM | GI50 (MDA-MB-435): 2.59 µM | TGI (MDA-MB-435): 5.37 µM | GI50 (NCI/ADR-RES ovarian): > 18 µM | TGI (NCI/ADR-RES ovarian): > 18 µM | GI50 (T-47D breast): 3.98 µM | TGI (T-47D breast): 15.4 µM | GI50 (NCI-H522 lung): 2.61 µM | TGI (NCI-H522 lung): 5.9 µM | GI50 (KM12 colon): 3.45 µM | TGI (KM12 colon): 6.48 µM | GI50 (OVCAR-8 ovarian): 6.93 µM | TGI (OVCAR-8 ovarian): > 18 µM | GI50 (SK-OV-3 ovarian): 4.27 µM | TGI (SK-OV-3 ovarian): 11.8 µM | GI50 (OVCAR-4 ovarian): 5.7 µM | TGI (OVCAR-4 ovarian): > 18 µM | GI50 (HL-60(TB) leukemia): 1.68 µM | TGI (HL-60(TB) leukemia): 5.42 µM | GI50 (M14 melanoma): 3.43 µM | TGI (M14 melanoma): 8.04 µM | GI50 (786-0 renal): 5.54 µM | TGI (786-0 renal): > 18 µM | GI50 (UACC-257 melanoma): 4.11 µM | TGI (UACC-257 melanoma): 12 µM | GI50 (PC-3 prostate): 3.58 µM | TGI (PC-3 prostate): 7.79 µM | GI50 (SK-MEL-2 melanoma): 3.78 µM | TGI (SK-MEL-2 melanoma): 9.2 µM | GI50 (LOX IMVI melanoma): 2.94 µM | TGI (LOX IMVI melanoma): 5.43 µM | GI50 (IGROV1 ovarian): 2.98 µM | TGI (IGROV1 ovarian): 5.65 µM | GI50 (SR leukemia): 2.99 µM | TGI (SR leukemia): 8.46 µM | GI50 (HS 578T breast): 3.76 µM | TGI (HS 578T breast): 11.8 µM | GI50 (MDA-MB-231 breast): 2.94 µM | TGI (MDA-MB-231 breast): 6.01 µM | GI50 (HOP-62 NSCLC): 5.01 µM | TGI (HOP-62 NSCLC): > 18 µM | GI50 (MDA-MB-468 breast): 2.38 µM | TGI (MDA-MB-468 breast): 5.19 µM | GI50 (SNB-75 CNS): 1.97 µM | TGI (SNB-75 CNS): 13.8 µM | GI50 (TK-10 renal): 8.11 µM | TGI (TK-10 renal): > 18 µM | GI50 (K-562 leukemia): 1.64 µM | TGI (K-562 leukemia): > 18 µM | GI50 (SF-268 CNS): 3.53 µM | TGI (SF-268 CNS): 9.09 µM | GI50 (SW-620 colon): 2.76 µM | TGI (SW-620 colon): 5.35 µM | GI50 (ACHN renal): > 18 µM | TGI (ACHN renal): > 18 µM
